Tests used:
[1] = biological target: Cytochrome P450 2C9 (Homo sapiens, UniProt P11712); assay: Inhibition of CYP2C9; type: ADME; conditions: read-out: IC50
[2] = biological target: Cytochrome P450 2C19 (Homo sapiens, UniProt P33261); assay: Inhibition of CYP2C19; type: ADME; conditions: read-out: IC50
[3] = biological target: Cytochrome P450 2D6 (Homo sapiens, UniProt P10635); assay: Inhibition of CYP2D6; type: ADME; conditions: read-out: IC50
[4] = biological target: Cytochrome P450 3A4 (Homo sapiens, UniProt P08684); assay: Inhibition of CYP3A4; type: ADME; conditions: read-out: IC50
[5] = Volume of distribution at steady state in rat at 2 mg/kg, iv; type: ADME, organism-based; parameters: dose 2 mg/kg, route intravenous; conditions: in vivo, read-out: Vdss
[6] = Half life in rat at 2 mg/kg, iv; type: ADME, organism-based; parameters: dose 2 mg/kg, route intravenous; conditions: in vivo
[7] = Apparent permeability across apical to basolateral side in human Caco2 cells at 10 uM; type: ADME, cell-based; conditions: Caco-2
[8] = Apparent permeability across basolateral to apical side in human Caco2 cells at 10 uM; type: ADME, cell-based; conditions: Caco-2
[9] = Fraction unbound in dog; type: ADME, organism-based, Canis lupus familiaris; conditions: in vivo
[10] = Cytotoxicity in mouse spleen macrophages assessed as phospholipidosis; conditions: Macrophage
[11] = Clearance in dog at 1 mg/kg, iv and 1 mg/kg, po; type: ADME, organism-based, Canis lupus familiaris; conditions: in vivo
[12] = Half life in dog at 1 mg/kg, iv and 1 mg/kg, po; type: ADME, organism-based, Canis lupus familiaris; conditions: in vivo
[13] = Volume of distribution at steady state in dog at 1 mg/kg, iv and 1 mg/kg, po; type: ADME, organism-based, Canis lupus familiaris; conditions: in vivo, read-out: Vdss
[14] = biological target: T1, Interstitial collagenase (Homo sapiens, UniProt P03956); assay: Inhibition of MMP1 using Mca-Pro-cyclohexyl-Ala-Gly-Nva-His-Ala- Dap(Dnp)-NH2 as substrate by fluorometric analysis
T1 sequence (P03956 whole entry): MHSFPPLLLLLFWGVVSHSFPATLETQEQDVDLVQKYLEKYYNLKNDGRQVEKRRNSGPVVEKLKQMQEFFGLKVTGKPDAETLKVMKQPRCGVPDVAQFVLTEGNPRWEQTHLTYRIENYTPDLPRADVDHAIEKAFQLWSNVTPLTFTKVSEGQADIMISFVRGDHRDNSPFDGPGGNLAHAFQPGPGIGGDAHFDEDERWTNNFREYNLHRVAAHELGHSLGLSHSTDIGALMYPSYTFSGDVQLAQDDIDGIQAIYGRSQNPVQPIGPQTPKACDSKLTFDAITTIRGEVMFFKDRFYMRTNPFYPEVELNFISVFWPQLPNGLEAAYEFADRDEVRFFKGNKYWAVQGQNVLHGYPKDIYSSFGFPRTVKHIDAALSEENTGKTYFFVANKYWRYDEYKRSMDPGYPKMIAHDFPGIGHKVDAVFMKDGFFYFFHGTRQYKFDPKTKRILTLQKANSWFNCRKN

[15] = biological target: Stromelysin-1 (Homo sapiens, UniProt P08254); assay: Inhibition of MMP3 using Mca-Pro-cyclohexyl-Ala-Gly-Nva-His-Ala- Dap(Dnp)-NH2 as substrate by fluorometric analysis
[16] = biological target: T2, Matrix metalloproteinase-19 (Homo sapiens, UniProt Q99542); assay: Inhibition of MMP19 using Mca-Pro-cyclohexyl-Ala-Gly-Nva-His-Ala- Dap(Dnp)-NH2 as substrate by fluorometric analysis
T2 sequence (Q99542 whole entry): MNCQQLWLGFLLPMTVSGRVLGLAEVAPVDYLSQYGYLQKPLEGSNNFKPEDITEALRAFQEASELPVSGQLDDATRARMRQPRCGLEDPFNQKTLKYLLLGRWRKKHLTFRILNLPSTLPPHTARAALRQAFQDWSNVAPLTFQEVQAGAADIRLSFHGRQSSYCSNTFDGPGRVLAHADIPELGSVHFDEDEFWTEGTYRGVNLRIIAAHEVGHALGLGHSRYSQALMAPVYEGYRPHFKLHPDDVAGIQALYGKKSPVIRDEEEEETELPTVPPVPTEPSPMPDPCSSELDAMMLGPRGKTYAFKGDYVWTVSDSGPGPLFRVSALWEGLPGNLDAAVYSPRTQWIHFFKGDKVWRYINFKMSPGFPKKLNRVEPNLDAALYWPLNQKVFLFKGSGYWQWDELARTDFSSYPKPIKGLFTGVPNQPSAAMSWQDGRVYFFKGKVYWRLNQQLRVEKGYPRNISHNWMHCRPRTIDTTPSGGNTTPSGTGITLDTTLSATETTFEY

[17] = tested on: Rattus norvegicus; assay: Oral bioavailability in rat; type: ADME, organism-based; conditions: in vivo
[18] = Oral bioavailability in dog; type: ADME, organism-based, Canis lupus familiaris; conditions: in vivo
[19] = Renal elimination in rat at 2 mg/kg, iv; type: ADME, organism-based; parameters: dose 2 mg/kg, route intravenous; conditions: urine, read-out: Ae
[20] = Intrinsic clearance in human hepatocytes assessed per 10^6 cells; type: ADME, cell-based, Hepatocyte; conditions: read-out: CLH
[21] = biological target: 72 kDa type IV collagenase (Homo sapiens, UniProt P08253); assay: Inhibition of MMP2 using Mca-Pro-cyclohexyl-Ala-Gly-Nva-His-Ala- Dap(Dnp)-NH2 as substrate by fluorometric analysis; conditions: read-out: IC50
[22] = biological target: Matrix metalloproteinase-9 (Homo sapiens, UniProt P14780); assay: Inhibition of MMP9 using Mca-Pro-cyclohexyl-Ala-Gly-Nva-His-Ala- Dap(Dnp)-NH2 as substrate by fluorometric analysis; conditions: read-out: IC50
[23] = biological target: Macrophage metalloelastase (Homo sapiens, UniProt P39900); assay: Inhibition of MMP12 using Mca-Pro-cyclohexyl-Ala-Gly-Nva-His-Ala- Dap(Dnp)-NH2 as substrate by fluorometric analysis; conditions: read-out: IC50
[24] = biological target: Matrix metalloproteinase-14 (Homo sapiens, UniProt P50281); assay: Inhibition of MMP14 using Mca-Pro-cyclohexyl-Ala-Gly-Nva-His-Ala- Dap(Dnp)-NH2 as substrate by fluorometric analysis; conditions: read-out: IC50
[25] = Lipophilicity, log D of the compound; conditions: octanol/water
[26] = Thermodynamic solubility of the compound
[27] = Fraction unbound in human; type: ADME, organism-based; conditions: in vivo
[28] = Fraction unbound in rat; type: ADME, organism-based; conditions: in vivo
[29] = tested on: Hepatocyte; assay: Intrinsic clearance in Sprague-Dawley rat hepatocytes assessed per 10^6 cells; type: ADME, cell-based

Chain of Cytochrome P450 2C19 (P33261 whole entry): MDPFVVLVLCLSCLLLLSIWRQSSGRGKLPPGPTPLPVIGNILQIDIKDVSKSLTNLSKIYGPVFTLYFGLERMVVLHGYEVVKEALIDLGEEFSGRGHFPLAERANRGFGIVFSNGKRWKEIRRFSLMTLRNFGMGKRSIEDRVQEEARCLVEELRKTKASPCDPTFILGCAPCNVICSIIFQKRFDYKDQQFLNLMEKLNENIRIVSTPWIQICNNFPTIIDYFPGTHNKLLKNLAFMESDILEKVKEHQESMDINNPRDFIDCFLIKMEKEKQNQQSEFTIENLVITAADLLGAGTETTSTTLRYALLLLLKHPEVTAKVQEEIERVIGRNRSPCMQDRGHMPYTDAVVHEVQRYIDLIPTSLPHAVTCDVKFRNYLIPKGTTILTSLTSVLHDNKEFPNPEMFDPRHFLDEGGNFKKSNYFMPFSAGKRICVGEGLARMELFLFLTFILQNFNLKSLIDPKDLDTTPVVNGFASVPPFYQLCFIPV
Chain of 72 kDa type IV collagenase (P08253 whole entry): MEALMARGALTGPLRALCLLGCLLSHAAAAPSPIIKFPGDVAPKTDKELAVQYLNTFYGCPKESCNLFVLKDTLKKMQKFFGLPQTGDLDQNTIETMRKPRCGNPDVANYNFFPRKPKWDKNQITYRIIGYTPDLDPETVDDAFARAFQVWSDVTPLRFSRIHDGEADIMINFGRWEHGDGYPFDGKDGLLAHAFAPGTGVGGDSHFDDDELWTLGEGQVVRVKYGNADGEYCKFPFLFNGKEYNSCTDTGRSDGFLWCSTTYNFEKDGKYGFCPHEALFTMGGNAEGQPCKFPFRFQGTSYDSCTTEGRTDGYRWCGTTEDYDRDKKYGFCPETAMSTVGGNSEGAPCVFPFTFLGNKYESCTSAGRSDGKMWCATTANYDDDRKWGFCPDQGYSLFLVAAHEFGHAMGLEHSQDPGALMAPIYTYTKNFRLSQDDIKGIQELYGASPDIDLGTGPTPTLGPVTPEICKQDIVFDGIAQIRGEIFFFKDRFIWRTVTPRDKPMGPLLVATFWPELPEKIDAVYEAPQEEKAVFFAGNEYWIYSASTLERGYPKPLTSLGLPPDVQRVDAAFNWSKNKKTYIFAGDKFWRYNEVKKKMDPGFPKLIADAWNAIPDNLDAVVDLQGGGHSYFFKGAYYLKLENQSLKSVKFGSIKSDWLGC
Chain of Macrophage metalloelastase (P39900 whole entry): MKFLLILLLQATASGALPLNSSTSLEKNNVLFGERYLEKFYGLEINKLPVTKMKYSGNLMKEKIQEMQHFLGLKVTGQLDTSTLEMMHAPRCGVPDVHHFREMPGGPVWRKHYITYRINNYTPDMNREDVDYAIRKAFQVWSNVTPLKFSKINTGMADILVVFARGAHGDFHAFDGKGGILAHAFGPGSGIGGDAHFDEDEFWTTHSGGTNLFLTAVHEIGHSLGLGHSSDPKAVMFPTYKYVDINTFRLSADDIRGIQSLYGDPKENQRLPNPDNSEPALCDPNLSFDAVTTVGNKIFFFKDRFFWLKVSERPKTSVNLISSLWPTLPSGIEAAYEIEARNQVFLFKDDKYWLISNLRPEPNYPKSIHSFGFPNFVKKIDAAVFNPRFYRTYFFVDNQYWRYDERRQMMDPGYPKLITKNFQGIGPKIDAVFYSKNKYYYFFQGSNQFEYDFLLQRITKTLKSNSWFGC
Chain of Matrix metalloproteinase-9 (P14780 whole entry): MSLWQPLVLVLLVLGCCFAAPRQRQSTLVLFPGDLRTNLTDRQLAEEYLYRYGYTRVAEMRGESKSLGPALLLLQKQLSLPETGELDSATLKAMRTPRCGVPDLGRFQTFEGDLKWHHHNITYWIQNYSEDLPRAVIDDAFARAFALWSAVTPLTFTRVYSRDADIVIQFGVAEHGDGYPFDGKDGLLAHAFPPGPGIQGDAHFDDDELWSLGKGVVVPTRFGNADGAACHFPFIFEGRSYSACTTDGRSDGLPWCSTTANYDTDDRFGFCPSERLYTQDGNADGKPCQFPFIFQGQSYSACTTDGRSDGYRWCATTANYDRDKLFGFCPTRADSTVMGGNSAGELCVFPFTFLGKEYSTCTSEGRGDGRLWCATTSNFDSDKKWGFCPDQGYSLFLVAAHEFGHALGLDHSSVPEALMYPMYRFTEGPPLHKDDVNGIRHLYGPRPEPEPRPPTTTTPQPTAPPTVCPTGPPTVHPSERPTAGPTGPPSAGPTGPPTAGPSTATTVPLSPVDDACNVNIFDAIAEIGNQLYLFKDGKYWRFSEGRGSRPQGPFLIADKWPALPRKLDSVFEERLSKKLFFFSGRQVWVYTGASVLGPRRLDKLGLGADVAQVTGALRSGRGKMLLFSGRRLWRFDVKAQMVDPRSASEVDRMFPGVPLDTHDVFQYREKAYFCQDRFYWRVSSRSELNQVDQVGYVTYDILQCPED
Chain of Cytochrome P450 2C9 (P11712 whole entry): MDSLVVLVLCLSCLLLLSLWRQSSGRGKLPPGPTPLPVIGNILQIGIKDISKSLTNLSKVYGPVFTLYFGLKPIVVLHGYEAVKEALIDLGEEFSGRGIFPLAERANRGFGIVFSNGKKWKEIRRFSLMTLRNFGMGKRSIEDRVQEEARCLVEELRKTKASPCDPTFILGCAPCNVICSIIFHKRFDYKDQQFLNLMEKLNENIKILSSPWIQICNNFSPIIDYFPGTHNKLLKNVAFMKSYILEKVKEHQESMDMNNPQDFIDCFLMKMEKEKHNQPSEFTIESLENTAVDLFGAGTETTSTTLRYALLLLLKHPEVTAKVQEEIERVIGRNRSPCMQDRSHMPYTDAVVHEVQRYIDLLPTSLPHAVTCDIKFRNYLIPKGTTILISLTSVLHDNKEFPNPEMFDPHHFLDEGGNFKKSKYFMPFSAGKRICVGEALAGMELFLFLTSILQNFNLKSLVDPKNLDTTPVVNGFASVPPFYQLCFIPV
Chain of Cytochrome P450 3A4 (P08684 whole entry): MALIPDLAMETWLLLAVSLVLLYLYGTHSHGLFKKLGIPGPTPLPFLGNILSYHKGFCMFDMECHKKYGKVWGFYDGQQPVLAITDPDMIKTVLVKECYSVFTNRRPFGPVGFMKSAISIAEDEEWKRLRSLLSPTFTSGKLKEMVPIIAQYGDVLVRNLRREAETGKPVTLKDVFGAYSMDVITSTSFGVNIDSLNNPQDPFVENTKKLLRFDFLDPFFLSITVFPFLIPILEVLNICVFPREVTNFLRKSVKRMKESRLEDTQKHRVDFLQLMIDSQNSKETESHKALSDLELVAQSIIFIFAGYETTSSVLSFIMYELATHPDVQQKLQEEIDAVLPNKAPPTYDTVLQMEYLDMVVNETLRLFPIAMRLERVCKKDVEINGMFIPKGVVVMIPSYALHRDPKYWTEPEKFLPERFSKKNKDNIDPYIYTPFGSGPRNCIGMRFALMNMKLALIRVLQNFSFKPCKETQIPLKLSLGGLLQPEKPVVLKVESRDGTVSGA
Chain of Cytochrome P450 2D6 (P10635 whole entry): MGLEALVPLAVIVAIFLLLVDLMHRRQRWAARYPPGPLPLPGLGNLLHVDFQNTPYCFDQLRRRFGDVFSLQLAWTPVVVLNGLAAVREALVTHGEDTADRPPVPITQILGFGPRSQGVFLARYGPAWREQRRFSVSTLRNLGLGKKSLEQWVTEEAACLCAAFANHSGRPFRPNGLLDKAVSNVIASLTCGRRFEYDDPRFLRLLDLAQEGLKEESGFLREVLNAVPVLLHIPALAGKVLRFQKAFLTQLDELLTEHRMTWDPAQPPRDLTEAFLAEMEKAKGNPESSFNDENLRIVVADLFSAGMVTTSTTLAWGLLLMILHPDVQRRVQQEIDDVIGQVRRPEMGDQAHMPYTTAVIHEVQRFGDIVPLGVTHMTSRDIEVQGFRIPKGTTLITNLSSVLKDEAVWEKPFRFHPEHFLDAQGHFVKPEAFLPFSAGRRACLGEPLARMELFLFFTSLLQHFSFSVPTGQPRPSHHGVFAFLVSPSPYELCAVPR
Chain of Stromelysin-1 (P08254 whole entry): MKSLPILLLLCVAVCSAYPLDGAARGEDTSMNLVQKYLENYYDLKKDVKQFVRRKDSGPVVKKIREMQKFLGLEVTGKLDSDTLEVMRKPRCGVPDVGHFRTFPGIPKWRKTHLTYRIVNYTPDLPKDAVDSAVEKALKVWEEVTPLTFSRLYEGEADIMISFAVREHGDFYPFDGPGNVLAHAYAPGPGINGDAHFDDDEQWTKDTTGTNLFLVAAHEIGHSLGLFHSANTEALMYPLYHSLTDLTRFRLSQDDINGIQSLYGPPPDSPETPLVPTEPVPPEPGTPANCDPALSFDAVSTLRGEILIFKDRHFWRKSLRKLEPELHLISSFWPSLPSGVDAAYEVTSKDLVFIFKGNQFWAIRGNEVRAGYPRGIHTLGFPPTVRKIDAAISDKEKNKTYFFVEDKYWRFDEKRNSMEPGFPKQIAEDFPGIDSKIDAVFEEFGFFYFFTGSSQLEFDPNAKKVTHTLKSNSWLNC

In the case of `O=C(NC1CCCS(=O)(=O)C1)c1ccc(Oc2ccc(C#C[C@]3(O)CN4CCC3CC4)cc2)cc1` (single isomer, unassigned; diastereomer 1), the IC50 [1] is reported as over 10 µM, the IC50 [2] is reported as over 10 µM and the IC50 [3] is reported as over 10 µM. The IC50 [4] was over 10 µM, the Vd [5] was 5.9 L/kg and the half-life [6] was 4.8 h. The Papp A→B at 10 µM [7] was 1.3 ×10⁻⁶ cm/s, the Papp B→A at 10 µM [8] was 43.5 ×10⁻⁶ cm/s and the fraction unbound [9] was 0.33. The EC50 [10] was 116 µM, the clearance [11] was 13 mL/min/kg and the half-life [12] was 5 h. The Vd [13] was 3.9 L/kg, the IC50 [14] was over 10 µM and the IC50 [15] was over 10 µM. It also gave an IC50 [16] of over 10 µM, an F [17] of 35% and a bioavailability [18] of 21%. The dose excreted [19] was under 1%, the hepatocyte CLint [20] was under 2 µL/min/1e6 cells and the IC50 [21] was 5.1 µM. It also gave an IC50 [22] of over 10 µM, an IC50 [23] of over 10 µM and an IC50 [24] of over 10 µM. It also gave a logD [25] of 1.4, a Therm_solubility [26] of 160 µM and a fraction unbound [27] of 0.25. The fraction unbound [28] was 0.27 and the CLH [29] was 2.9 µL/min.

— ChEMBL document CHEMBL1938343, “Lead optimisation of selective non-zinc binding inhibitors of MMP13. Part 2” (Bioorg Med Chem Lett, 2012)
